Test results reported in patent US20150315241A1, “Antibiotic Peptides” (priority 2007, published 2015).
Converted amounts (≈) assume the structure as drawn. Where a SMILES comes first, the peptide text is derived from it. Where no end group is shown, it is not given here. [ ]: non-standard residue; d: D form. The star is where a group is joined. Orn(α-tetramethylguanidino) = CN(C)C(=N[C@@H](CCCN)C(=O)*)N(C)C; Orn = NCCC[C@H](N)C(=O)O

Experiments:
[1] = In vivo distribution of fluorescent-labelled peptide (imaging); set-up: species or system female Balb/c mice; conditions: mice, 40 μg i.p., 60-65 min
Method: The in vivo distribution was measured in mice using fluorescent-labelled peptides derivatives.
Near-infrared absorbing fluorescent dye Dy675 (Dyomics GmbH, Jena, Germany) was activated with DIC and coupled to the N-terminus of the peptide derivatives after completion of the solid phase peptide synthesis (see example 1). Afterwards the peptides were cleaved with TFA and purified by RP-HPLC (see example 1).
Forty μg of the labelled peptide derivatives were injected subcutaneously (sc) or intra-peritional (ip) into shaved and isoflurane anesthetized female Balb/c mice. The animals were placed into the fluorescence microscope chamber under continuous isoflurane exposure. Fluorescence exposure pictures were taken with an IVIS microscope set to 695 nm emission wavelength at every minute in the first 10 min after peptide addition and every 5 min afterwards until 65 min.

E. coli 45849 = experiment: Growth inhibition assay (MIC); type: cell-based, Escherichia coli; conditions: multidrug resistant strain; 1% TSB, 37° C., 20 hrs
Outline: (§1)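 Broth microdilution with two-fold peptide series, final 125 μg/mL down to 60 ng/mL, against overnight cultures adjusted to 5×10^6 CFU/mL in 1% TSB. Incubated 20 h at 37° C. Growth read by absorbance at 595 nm, triplicates.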

S. typhi S5 = type: cell-based, Salmonella typhi; conditions: S5, 20 h
Outline: as §1

E. coli D31 = type: cell-based, Escherichia coli; conditions: D31, 20 h
Outline: as §1

K. Pneumonia 123132 = experiment: Growth inhibition assay (MIC); type: cell-based, Klebsiella pneumoniae; conditions: multidrug resistant strain; 1% TSB, 37° C., 20 hrs
Outline: as §1

[2] = tested on: K. Pneumonia K6, ATCC 700603; experiment: Growth inhibition assay (MIC); type: cell-based, Klebsiella pneumoniae; conditions: multidrug resistant strain; 1% TSB, 37° C., 20 hrs
Outline: as §1

[3] = tested on: S. enterica subsp. Enterica serovar. typhi G10215 ATCC 700408; type: cell-based, Salmonella enterica; conditions: ATCC 700408, 20 h
Outline: as §1

[4] = tested on: R. radiobatter ATCC 15955; experiment: Growth inhibition assay (MIC); type: cell-based, Rhizobium radiobacter; conditions: multidrug resistant strain; 1% TSB, 37° C., 20 hrs
Outline: as §1

E. coli BL 21 AI = experiment: Growth inhibition assay (MIC); type: cell-based, Escherichia coli; conditions: 1% TSB, 37° C., 20 hrs
Outline: (§2)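 Peptides were serially diluted two-fold in 1% TSB, giving final concentrations from 125 μg/mL down to 60 ng/mL, and mixed with overnight bacterial culture adjusted to 5×10^6 CFU/mL in 1% TSB. After 20 hrs at 37 °C, growth was read as absorbance at 595 nm, in triplicate, with sterile water as negative control.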

E. coli DC 2 = experiment: Growth inhibition assay (MIC); type: cell-based, Escherichia coli; conditions: 1% TSB, 37° C., 20 hrs
Outline: as §2

M. luteus ATCC 10240 = type: cell-based, Micrococcus luteus; conditions: ATCC 10240, 20 h
Outline: as §2

E. coli 10233 = type: cell-based, Escherichia coli; conditions: 10233, 20 h
Outline: as §2

E. coli 1103 = type: cell-based, Escherichia coli; conditions: 1103, 20 h
Outline: as §2

K. pneumonia 681 = type: cell-based, Klebsiella pneumoniae; conditions: 20 h
Outline: as §2

Mycobacterium vaccae = type: cell-based; conditions: 20 h
Method: The minimal inhibition concentrations (MIC) of the apidaecin-derived peptides and peptide-derivatives were determined by a growth inhibition assay using a serial peptide dilution in sterilized round-bottom 96-well plates (polystyrene, U-bottom, Greiner Bio-One GmbH) with a final volume of 100 μL per well. The bacteria, e.g., E. coli BL21 A1, were grown in nutrient broth (NB, Carl Roth GmbH+Co. KG, Karlsruhe, Germany) at 37° C. over night. To each well of the 96-well plate, 50 μL of the overnight culture adjusted to 5×10^6 CFU/mL in 1% TSB were added. Lyophilized peptides and peptidomimetics were dissolved in 1% TSB (tryptic soy broth) or water to give a final concentration of 250 μg/mL. Fifty μL of the peptide or peptidomimetics solution were added to the first well of a row on the plate and mixed. Fifty μL of the first well containing the peptide solution were transferred to the second well, mixed and again 50 μL transferred to the next well and so on. Thereby, a two-fold dilution series was obtained starting at 250 μg/mL in the first well down to 120 ng/mL in the 12th well of a row giving a final peptide or peptidomimetics concentration from 125 μg/mL (well 1) to 60 ng/mL (well 12). Plates were incubated at 37° C. for 20 hrs. The absorbance was measured at 595 nm using a TECAN micro plate spectrophotometer (Tecan, Germany). All peptides and peptidomimetics were measured in triplicates. Sterilized water was used as a negative control.
The bacteria strains were tested: • Eschericha coli 1103, 10233, BL 21 AI, DC 2, • Klebsiella pneumoniae 681, • Micrococcus luteus ATCC 10240, • Mycobacterium vaccae • Bactillus subtillis 347.

B. subtilis 347 = type: cell-based, Bactillus subtillis; conditions: 347, 20 h
Outline: as §2

in vitro = in vitro ADME, mouse; conditions: 25% aqueous mouse serum, 37° C.; read-out: Half-life time
Outline: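 Peptide or peptidomimetic (0.5 mg/mL aqueous stock) incubated in 25% pooled mouse serum at 37 °C, sampled at 0–6 h, in duplicate. Proteins precipitated with 15% TCA; supernatants neutralized and analyzed by RP-HPLC with 0.1% TFA. Degradation products identified by MALDI-TOF/TOF-MS.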

E. coli BL21 AI = tested on: E. coli BL21 AI
Method: The induction of resistance strains was determined according to the macro dilution method under NCCLS-conditions (National Committee for Clinical Laboratory Standards—now Clinical and Laboratory Standards Institute Wayne, Pa., USA, NCCLS-Guideline, M7-A5, Vol. 20, Nr. 2; 2000).
Firstly, minimal inhibition concentrations (MIC) were determined for the peptides to be examined as described in example 3.2. To determine induction of resistance continued dilutions of the peptide with concentrations ranging from 3 fold to 4 fold above to below the MIC were chosen. The test was performed in sterile 96-well microtiter plates with round bottoms (Polystyrene, U-bottom, Greiner Bio-One GmbH, Germany) and 200 μL final volume per well. The freeze-dried peptide or peptide derivatives were dissolved in water and diluted in respect to the MIC in 1% TSB (tryptic soy broth) to obtain a volume of 100 μL. […] The dilutions within the series were twofold.
The bacteria, E. coli BL21 AI, were grown overnight at 37° C. in nutrient broth (NB, Carl Roth GmbH+Co. KG, Karlsruhe, Germany) and diluted to 5×10^6 colony forming units (CFU)/mL in 1% TSB. To start the assay 100 μL of the bacteria dilution was added per well of the microtiter plate loaded with peptide. After incubating the plates for 24 h at 37° C., the absorption was determined at 595 nm using a TECAN microtiter plate reader (Tecan, Germany).
MIC values were calculated as described in example 3.2. The test was repeated using new dilution series with peptide concentrations adapted to the new determined MIC values and using the bacteria culture that grew despite the presence of the inhibitory peptide. This bacteria culture (1st passage) was diluted to 5×10^6 CFU/mL in 1% TSB. […] The test was repeated again with using new dilution series with peptide concentrations adapted to the new determined MIC values and using the bacteria culture that grew despite the presence of the inhibitory peptide (2nd passage). The same procedure was applied for about 8 further passages.
As a control a untreated E. coli BL21 AI culture was chosen and passaged without inhibitory peptides. All peptides and peptide derivatives were measured in triplicates. The number of passages was chosen dependent on the rapidity of induction of resistance and commonly was 10 passages over 10 continuous days.

[5] = cited from earlier work

Row | Compound | MIC S. typhi S5 (S. typhi S5) | MIC E. coli D31 (E. coli D31) | MIC S. enterica subsp. Enterica serovar. typhi G10215 ATCC 700408 [3] | MIC M. luteus ATCC 10240 (M. luteus ATCC 10240) | MIC E. coli 10233 (E. coli 10233) | MIC E. coli 1103 (E. coli 1103) | MIC K. pneumonia 681 (K. pneumonia 681) | MIC B. subtilis 347 (B. subtilis 347) | induction of resistance (E. coli BL21 AI; 10 passages) | other results
1 | 160 (Dy675-[Orn]NNRPVYIPRPRPPHPRL-NH2) [compound 160] | – | – | – | – | – | – | – | – | – | in vivo biodistribution (fluorescence imaging) [1]: enriched in brain, liver, and both kidneys
2 | CC[C@H](C)[C@H](NC(=O)[C@H](Cc1ccc(O)cc1)NC(=O)[C@@H](NC(=O)[C@@H]1CCCN1C(=O)[C@H](CCCNC(=N)N)NC(=O)[C@H](CC(N)=O)NC(=O)[C@H](CC(N)=O)NC(=O)[C@H](CCCN)NC(C)=O)C(C)C)C(=O)N1CCC[C@H]1C(=O)N[C@@H](CCCNC(=N)N)C(=O)N1CCC[C@H]1C(=O)N[C@@H](CCCNC(=N)N)C(=O)N1CCC[C@H]1C(=O)N1CCC[C@H]1C(=O)N[C@@H](Cc1c[nH]cn1)C(=O)N1CCC[C@H]1C(=O)N[C@@H](CCCNC(=N)N)C(=O)N[C@@H](CC(C)C)C(N)=O [compound 39] (Ac-[Orn]NNRPVYIPRPRPPHPRL-NH2) | <0.5 µg/mL | 4 µg/mL (≈ 1.79 µM) | 4 µg/mL (≈ 1.79 µM) | 0.98 µg/mL (≈ 0.439 µM) | 1.95 µg/mL (≈ 0.873 µM) | 3.91 µg/mL (≈ 1.75 µM) | 3.9 µg/mL (≈ 1.75 µM) | 125 µg/mL (≈ 55.9 µM) | – | MIC E. coli 45849 (E. coli 45849): 1 µg/mL (≈ 0.447 µM); MIC K. Pneumonia 123132 (K. Pneumonia 123132): 4 µg/mL (≈ 1.79 µM); MIC K. Pneumonia K6, ATCC 700603 [2]: 16 µg/mL (≈ 7.16 µM); MIC R. radiobatter ATCC 15955 [4]: 0.33 µg/mL (≈ 0.148 µM); MIC E. coli BL 21 AI (E. coli BL 21 AI): 1.95 µg/mL (≈ 0.873 µM); MIC E. coli DC 2 (E. coli DC 2): 0.98 µg/mL (≈ 0.439 µM); MIC Mycobacterium vaccae (Mycobacterium vaccae): 125 µg/mL (≈ 55.9 µM)
3 | CC[C@H](C)[C@H](NC(=O)[C@H](Cc1ccc(O)cc1)NC(=O)[C@@H](NC(=O)[C@@H]1CCCN1C(=O)[C@H](CCCNC(=N)N)NC(=O)[C@H](CC(N)=O)NC(=O)[C@H](CC(N)=O)NC(=O)[C@H](CCCN)N=C(N(C)C)N(C)C)C(C)C)C(=O)N1CCC[C@H]1C(=O)N[C@@H](CCCNC(=N)N)C(=O)N1CCC[C@H]1C(=O)N[C@@H](CCCNC(=N)N)C(=O)N1CCC[C@H]1C(=O)N1CCC[C@H]1C(=O)N[C@@H](Cc1c[nH]cn1)C(=O)N1CCC[C@H]1C(=O)N[C@@H](CCCNC(=N)N)C(=O)N[C@@H](CC(C)C)C(N)=O [compound 88] ({Orn(α-tetramethylguanidino)}-NNRPVYIPRPRPPHPRL-NH2; N-terminus and C-terminus assumed) | 0.125 µg/mL (≈ 0.0546 µM) | 0.5 µg/mL (≈ 0.218 µM) | 0.125 µg/mL (≈ 0.0546 µM) | 1.95 µg/mL (≈ 0.851 µM) | 1.95 µg/mL (≈ 0.851 µM) | – | 7.81 µg/mL (≈ 3.41 µM) | 62.5 µg/mL (≈ 27.3 µM) | no induction of resistance was observed at all | half-life (in vitro): 15 min
4 | CC[C@H](C)[C@H](NC(=O)[C@H](Cc1ccc(O)cc1)NC(=O)[C@@H](NC(=O)[C@@H]1CCCN1C(=O)[C@H](CCCNC(=N)N)NC(=O)[C@H](CC(N)=O)NC(=O)[C@H](CC(N)=O)NC(=O)[C@H](CCCN)N=C(N(C)C)N(C)C)C(C)C)C(=O)N1CCC[C@H]1C(=O)N[C@@H](CCCNC(=N)N)C(=O)N1CCC[C@H]1C(=O)N[C@@H](CCCNC(=N)N)C(=O)N1CCC[C@H]1C(=O)N1CCC[C@H]1C(=O)N[C@@H](Cc1c[nH]cn1)C(=O)N1CCC[C@H]1C(=O)N[C@@H](CCCNC(=N)N)C(=O)N[C@@H](CC(C)C)C(=O)O [compound 137] ({Orn(α-tetramethylguanidino)}-NNRPVYIPRPRPPHPRL-OH; N-terminus and C-terminus assumed) | <1 µg/mL | <1 µg/mL | <1 µg/mL | 8 µg/mL (≈ 3.49 µM) | – | 8 µg/mL (≈ 3.49 µM) | 2 µg/mL (≈ 0.873 µM) | 64 µg/mL (≈ 27.9 µM) | no induction of resistance was observed at all | –
5 | GNNRPVYIPQPRPPHPRL [apidaecin] | – | – | – | – | – | – | – | – | – | degradation in mammalian serum [5]: completely degradaded within one hour
6 | H-GNNRPVYIPQPRPPHPRL-OH [SEQ ID No. 2, GNNRPVYIPQPRPPHPRL-OH, reference compound] | – | – | – | – | – | – | – | – | – | passage after which first resistance strains were obtained (E. coli BL21 AI; 10 passages): 2nd; MIC-value in the 10th passage (E. coli BL21 AI; 10th passage): 128 µg/mL
